Measured values reported in patent US8765716B2, “Pharmaceutical composition containing docetaxel-cyclodextrin inclusion complex and its preparing process” (Meridian Laboratories, Inc., priority 2006, dated 2014).
Read-outs that look alike come from different tables or passages of the source.

Legend:
[1] = tested on: advanced breast carcinoma; settings: treatment of advanced breast carcinoma; cited from earlier work
tubulin = settings: versus paclitaxel; cited from earlier work
[2] = Inclusion solubilization test; assay type: physicochemical; settings: thermodynamic from solid, docetaxel solubility in pure water, 25° C.
Method: Standard curve: 0.67 mg/ml docetaxel solution was prepared by dissolving docetaxel with ethanol, and diluted with pure water into […]˜20.1 μg/ml series solutions, then UV absorption value A was measured under 228 nm. A standard curve was plotted by A against concentration C (mg/ml) (A=13.881C+0.3577 (r=0.9998)).
The excessive docetaxel or inclusion in the pure water was oscillated for 72 h at 25° C.±1° C., filtered and placed still.

[3] = Docetaxel stability test in solution (HPLC assay); assay type: physicochemical; settings: normal saline solution
Method: (§1) HPLC chromatographic conditions: chromatographic column ODS Cig (250 mm×4.6 mm); mobile phase: water:acetonitrile (53:47); flow rate: 1.0 ml/min; detection wavelength: 230 nm; detection time: 30.00 min; detection sensitivity: 1.0000AUFS.
Under the aforesaid HPLC chromatographic conditions, some docetaxel raw materials; docetaxel/sulfobuty-β-cyclodextrin inclusion (a) with a mass ratio of 1:17 and docetaxel/hydroxypropy-sulfobuty-β-cyclodextrin inclusion (b) with a mass ratio of 1:17 were taken and dissolved with normal saline solution, diluted for 100 times after 30 min ultrasonic wave treatment, placed still, […]

[4] = Solid inclusion stability, 5-day acceleration test (light, high temperature, high humidity), HPLC content; assay type: physicochemical
Method: as §1
Samples: docetaxel material; docetaxel/sulfobutyl-β-cyclodextrin inclusion (a, mass ratio of 1:17); docetaxel/hydroxypropyl-sulfobutyl-β-cyclodextrin inclusion (b, mass ratio of 1:17). Docetaxel materials and inclusions were divided into three portions of test samples equally and were subject to light, high temperature and high humidity acceleration tests respectively:
Samples were put in a sealed transparent container and then placed in an illumination box equipped with fluorescent light of 4500±500LX illumination intensity for 5 days. Sampling inspection analysis was conducted, and the test results were compared with the samples of 0 day.
Samples were placed in a clean sealed container at a temperature of 60° C. for 5 days. Sampling inspection analysis was conducted, and the test results were compared with the samples of 0 day.
Samples were placed in a sealed container of constant humidity at temperature of 25° C. and relative humidity of 90±5% for 5 days. Sampling inspection analysis was conducted, and the test results were compared with the samples of 0 day.

[5] = cited from earlier work

## CC(=O)O[C@@]12CO[C@@H]1C[C@H](O)[C@@]1(C)C(=O)[C@H](O)C3=C(C)[C@@H](OC(=O)[C@H](O)[C@@H](NC(=O)OC(C)(C)C)c4ccccc4)C[C@@](O)([C@@H](OC(=O)c4ccccc4)[C@H]21)C3(C)C (relative stereo) [Docetaxel, [2aR-(2aα,4β,4aβ,6β,9α,(αR*,βS*),11α,12α,12aβ,12bα)]-β-[[(1,1-dimethylethoxy)carbonyl]amino]-α-hydroxyphenyl propionic acid [12b-acetoxy-12-benzoyloxy-2a,3,4,4a,5,6,9,10,11,12,12a,12b-dodecahydro-4,6,11-trihydroxyl-4-a,8,13,13-tetramethyl-5-oxo-7,11-methylene-1H-pentacyclo-ene[3,4]benzo[1,2-b]tetraoxacyclo-9-base]acetate trihydrate]
[1]
  effective ratio: 49%
tubulin
  inhibitory activity of tubulin depolymerization relative to paclitaxel: about 2 times
[2]
  solubility at 72 h: 2.9 µg/mL
[3]; diluted 100 times, 0 h
  Content (%) 0 h: 99.675%
[3]; diluted 100 times, 5 h
  Content (%) 5 h: 99.025%
[3]; diluted 100 times, 10 h
  Content (%) 10 h: 97.381%
[3]; diluted 100 times, 24 h
  Content (%) 24 h: 93.433%
[3]; diluted 100 times, 96 h
  Content (%) 96 h: 86.384%
[3]; in solution, read-out: half-life of sample decomposition in solution (converted)
  half-life: 15.1 days
[4]; 0 day
  Content (%) 0 day: 99.675%
[4]; 25° C., relative humidity 90±5%, 5 days
  Content (%) Hight humitdity: 83.877%
[4]; 60° C., 5 days
  Content (%) High temperature: 87.859%
[4]; 4500±500LX, 5 days
  Content (%) Light: 90.176%
[5]; after injection
  incidence rate of moderate and severe hypersusceptibility: 25.9%
[5]; dosage 75 mg/m^2
  incidence rate of moderate hypersusceptibility or more: 31%
[5]; dosage 100 mg/m^2
  incidence rate of moderate hypersusceptibility or more: 41.3%
[5]; in vivo
  injection-part reaction rate: up to 13.3%
